Measurements as given in patent US9193731B2, “Antimicrobial compounds and methods of making and using the same” (Melinta Therapeutics, Inc., priority 2009, dated 2015).
Counter-ions that a name gives are not always drawn.

tested on: Escherichia coli strain ATCC25922; experiment: standard microdilution assay to determine minimum inhibitory concentrations (MICs); format: cell-based; settings: Escherichia coli strain ATCC25922, microdilution
How it was run: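 E. coli strain ATCC25922 tested per CLSI microdilution methodology (about 100 microliters per well) to find minimum inhibitory concentrations. Activity scored categorically at a 16 micrograms/ml threshold.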

Row | Structure (SMILES) | E. coli ATCC25922 MIC
1 | N=C(N)NCCCNCc1ccc(-n2cc3cc(-c4ccc(S(=O)(=O)N(CC5CC5c5ccncc5)C5CCNCC5)cc4)[nH]c3nc2=O)cc1 (stereo not shown) [Compound 866] | + (a “+” indicates that the compound has an MIC value of 16 micrograms/ml or less)
2 | N=C(N)NCCCNCc1ccc(-n2cc3cc(-c4ccc(S(=O)(=O)N(Cc5cc(Cl)cc(C(F)(F)F)c5)C5CCNCC5)cc4)[nH]c3nc2=O)cc1 [Compound 922] | + (a “+” indicates that the compound has an MIC value of 16 micrograms/ml or less)
3 | N=C(N)NCCCNCc1ccc(-c2cn3cc(-c4ccc(C(=O)N5CCC(N)CC5)cc4)[nH]c3nc2=O)cc1 [Compound 808] | + (a “+” indicates that the compound has an MIC value of 16 micrograms/ml or less)
4 | N=C(N)NCCCNCCCCCn1cc2cc(-c3ccc(S(=O)(=O)NC4CCNCC4)cc3)[nH]c2nc1=O [Compound 924] | + (a “+” indicates that the compound has an MIC value of 16 micrograms/ml or less)
5 | N=C(N)NCCCN1CC=C(n2cc3cc(-c4ccc(S(=O)(=O)N(CC5CC5)C5CCNCC5)cc4)[nH]c3nc2=O)CC1 [Compound 969] | + (a “+” indicates that the compound has an MIC value of 16 micrograms/ml or less)
6 | CC(=O)NCCN(C1CCNCC1)S(=O)(=O)c1cccc(-c2cc3cn(-c4ccc(CNCCCN=C(N)N)cc4)c(=O)nc3[nH]2)c1 [Compound 1243] | + (a “+” indicates that the compound has an MIC value of 16 micrograms/ml or less)
7 | N=C(N)NCCCNCc1ccc(-n2cc3cc(-c4cc(C(=O)Nc5cc(F)cc(F)c5)cc(N5CCNCC5)c4)[nH]c3nc2=O)cc1 [Compound 978] | + (a “+” indicates that the compound has an MIC value of 16 micrograms/ml or less)
8 | N=C(N)NCCC(=O)NCc1ccc(-n2cc3cc(-c4ccc(S(=O)(=O)NC5CCNCC5)cc4)[nH]c3nc2=O)cc1 [Compound 1075] | + (a “+” indicates that the compound has an MIC value of 16 micrograms/ml or less)
9 | N=C(N)NCCCNCc1ccc(-c2cn3cc(C(=O)Nc4cccc(OC(F)(F)F)c4)[nH]c3nc2=O)cc1 [Compound 974] | − (a “−” indicates that the compound has an MIC value greater than 16 micrograms/ml)
10 | N=C(N)NCCCNCc1ccc(-n2cc3cc(-c4cccc(OCC5(CN)CC5)c4)[nH]c3nc2=O)cc1 [Compound 1413] | + (a “+” indicates that the compound has an MIC value of 16 micrograms/ml or less)
11 | CC1CN(S(=O)(=O)c2ccc(-c3cc4cn(-c5ccc(CNCCCNC(=N)N)cc5)c(=O)nc4[nH]3)cc2)CC(C)N1 (stereo not shown) [Compound 872] | + (a “+” indicates that the compound has an MIC value of 16 micrograms/ml or less)
12 | N=C(N)NCCCNCc1ccc(-n2cc3cc(-c4ccc(Cl)c(CCCCN)c4)[nH]c3nc2=O)cc1 [Compound 2089a] | + (a “+” indicates that the compound has an MIC value of 16 micrograms/ml or less)
13 | N=C(N)NCCCNCc1ccc(-c2cn3cc(-c4ccc(C(=O)N5CCN(CCF)CC5)cc4)[nH]c3nc2=O)cc1 [Compound 826] | − (a “−” indicates that the compound has an MIC value greater than 16 micrograms/ml)
14 | N=C(N)NCCCNCc1ccc(-n2cc3cc(C4CCCN(C(=O)CCCN)C4)[nH]c3nc2=O)cc1 (stereo not shown) [Compound 1406] | + (a “+” indicates that the compound has an MIC value of 16 micrograms/ml or less)
15 | N=C(N)NCCCNCc1ccc(-n2cc3cc(-c4ccc(S(=O)(=O)N(CC5COc6ccccc6O5)C5CCOCC5)cc4)[nH]c3nc2=O)cc1 (stereo not shown) [Compound 877] | − (a “−” indicates that the compound has an MIC value greater than 16 micrograms/ml)
16 | N=C(N)NCCCNCc1ccc(-n2cc3cc(-c4cc(CCO)cc(CCCCN)c4)[nH]c3nc2=O)cc1 [Compound 2053a] | + (a “+” indicates that the compound has an MIC value of 16 micrograms/ml or less)
17 | COCCOCCN(C1CCNCC1)S(=O)(=O)c1ccc(-c2cc3cn(-c4ccc(CNCCCNC(=N)N)cc4)c(=O)nc3[nH]2)cc1 [Compound 802] | + (a “+” indicates that the compound has an MIC value of 16 micrograms/ml or less)
18 | N=C(N)NCCCNCc1ccc(-n2cc3cc(-c4ccc(S(=O)(=O)N5CC(N)C5)cc4)[nH]c3nc2=O)cc1 [Compound 1459] | + (a “+” indicates that the compound has an MIC value of 16 micrograms/ml or less)
19 | CS(=O)(=O)Cc1cc(CCCCN)cc(-c2cc3cn(-c4ccc(CNCCCNC(=N)N)cc4)c(=O)nc3[nH]2)c1 [Compound 2088a] | + (a “+” indicates that the compound has an MIC value of 16 micrograms/ml or less)
20 | N=C(N)NCCCNCc1ccc(-n2cc3cc(-c4ccc(S(=O)(=O)N(CCCC5CCCC5)C5CCNCC5)cc4)[nH]c3nc2=O)cc1 [Compound 840] | + (a “+” indicates that the compound has an MIC value of 16 micrograms/ml or less)
21 | CC(CN)CN1CCC(c2cc3cn(-c4ccc(CNCCCNC(=N)N)cc4)c(=O)nc3[nH]2)C1 (stereo not shown) [Compound 2040a] | + (a “+” indicates that the compound has an MIC value of 16 micrograms/ml or less)
22 | NCCCNC(=O)c1ccc(-n2cc3cc(-c4ccc(S(=O)(=O)NC5CCNCC5)cc4)[nH]c3nc2=O)cc1OCC1CCNCC1 [Compound 1241] | − (a “−” indicates that the compound has an MIC value greater than 16 micrograms/ml)
23 | N=C(N)NCCNCC(O)Cn1cc2cc(-c3ccc(S(=O)(=O)NC4CCNCC4)cc3)[nH]c2nc1=O (stereo not shown) [Compound 1108] | + (a “+” indicates that the compound has an MIC value of 16 micrograms/ml or less)
24 | N=C(N)CCCOc1cccc(-c2cc3cn(-c4ccc(CNCCCNC(=N)N)cc4)c(=O)nc3[nH]2)c1 [Compound 1217] | + (a “+” indicates that the compound has an MIC value of 16 micrograms/ml or less)
25 | N=C(N)NCCCNC(=O)c1ccc(-n2cc3cc(-c4ccc(S(=O)(=O)CCCNC5CCCNC5)cc4)[nH]c3nc2=O)cc1 (stereo not shown) [Compound 1276] | + (a “+” indicates that the compound has an MIC value of 16 micrograms/ml or less)

same assay, conditions: Escherichia coli, ATCC25922, Escherichia coli strain ATCC25922, microdilution; read-out: E. coli ATCC25922 MIC

Row | MIC [µg/mL] | Structure (SMILES)
26 | < 16 | NCCCNCc1ccc(-n2cc3cc(CCN)[nH]c3nc2=O)cc1 [Compound 624]
27 | < 16 | N=C(N)NCCCNCc1ccc(-c2cn3cc(-c4ccc(C(=O)NC5CCNC5)cc4)[nH]c3nc2=O)cc1 (stereo not shown) [Compound 705]
28 | > 16 | NCCCCCN1CCN(c2cn3cc(-c4ccc(Br)cc4)[nH]c3nc2=O)CC1 [Compound 883]
29 | > 16 | CCCCn1cc(CCN)c2ccc(-n3cc4cc(CCS(=O)(=O)C5CCNCC5)[nH]c4nc3=O)cc21 [Compound 1258]
30 | > 16 | NCc1ccc(-n2cc3cc(-c4cccc(OCCO)c4)[nH]c3nc2=O)cc1 [Compound 1100]
31 | < 16 | NCCCN(CCCN)Cc1ccc(-n2cc3cc(-c4ccc(S(=O)(=O)N(Cc5ccc(SC(F)(F)F)cc5)C5CCNCC5)cc4)[nH]c3nc2=O)cc1 [Compound 236]
32 | > 16 | NCc1ccc(-n2cc3cc(-c4cccc(OCCCO)c4)[nH]c3nc2=O)cc1 [Compound 1099]
33 | > 16 | O=c1nc2[nH]c(-c3ccc(S(=O)(=O)NC4CCNCC4)cc3)cc2cn1-c1ccccc1O [Compound 1208]
34 | < 16 | CSCCN(C1CCNCC1)S(=O)(=O)c1ccc(-c2cc3cn(-c4ccc(CN(CCCN)CCCN)cc4)c(=O)nc3[nH]2)cc1 [Compound 232]
35 | > 16 | NCc1ccc(-n2cc3cc(-c4cccc(OCCNC(N)=O)c4)[nH]c3nc2=O)cc1 [Compound 1142]
36 | > 16 | NCc1ccc(-n2cc3cc(-c4ccccc4OCCCO)[nH]c3nc2=O)cc1 [Compound 1105]
37 | < 16 | NCCCNCc1ccc(-n2cc3cc(-c4ccc(C[C@H](N)CO)cc4)[nH]c3nc2=O)cc1 [Compound 867]
38 | > 16 | N=C(N)NCCCNCc1ccc(-n2cc3cc(C[C@@H](CO)NC(=O)c4ccccc4)[nH]c3nc2=O)cc1 [Compound 1231]
39 | > 16 | N=C(N)NCCCNCc1ccc(-c2cn3cc(CCc4cc(F)c(F)cc4F)[nH]c3nc2=O)cc1 [Compound 952]
40 | > 16 | NCc1ccc(-n2cc3cc(-c4ccc(S(=O)(=O)N(CCCC5CCCC5)C5CCNCC5)cc4)[nH]c3nc2=O)cc1 [Compound 946]
41 | > 16 | NCCc1cn(CCCCO)c2cc(-n3cc4cc(CCS(=O)(=O)C5CCNCC5)[nH]c4nc3=O)ccc12 [Compound 1239]
42 | > 16 | NCCCNCc1ccc(-n2cc3cc(-c4ccc(C(F)(F)F)cc4)[nH]c3nc2=O)cc1 [Compound 611]
43 | > 16 | N=C(N)NCCCCN1CCC(n2cc3c(nc2=O)[nH]c2ccccc23)C1 (stereo not shown) [Compound 562, N-{4-[3-(2-oxo-2,9-dihydro-1,3,9-triaza-fluoren-3-yl)-pyrrolidine-1-yl]-butyl}-guanidine]
44 | > 16 | CS(=O)(=O)NCc1cc2cn(-c3ccc(CNCCCNC(=N)N)cc3)c(=O)nc2[nH]1 [Compound 1153]
45 | > 16 | NCCCOc1cccc(-c2cc3cn(-c4ccc(CN)cc4)c(=O)nc3[nH]2)c1 [Compound 1087]
46 | > 16 | O=c1nc2[nH]c3ccccc3c2cn1C1CNC1 [Compound 591]
47 | < 16 | CN1CCN(c2cccc(-c3cc4cn(-c5ccc(CNCCCN)cc5)c(=O)nc4[nH]3)c2)CC1 [Compound 677]
48 | < 16 | CC(=O)NCCN1CCCC(c2cc3cn(-c4ccc(CNCCCNC(=N)N)cc4)c(=O)nc3[nH]2)C1 (stereo not shown) [Compound 2018a]
49 | < 16 | Cc1cc(F)cc(CN(C2CCNCC2)S(=O)(=O)c2ccc(-c3cc4cn(-c5ccc(CN(CCCN)CCCN)cc5)c(=O)nc4[nH]3)cc2)c1 [Compound 237]
50 | < 16 | NCCCN(CCCN)Cc1ccc(-n2cc3cc(-c4ccc(S(=O)(=O)NC5CCNCC5)cc4F)[nH]c3nc2=O)cc1 [Compound 200]

Row | Structure (SMILES) | MIC [µg/mL]
51 | NCCCN1CC=C(c2cn3c(nc2=O)[nH]c2ccccc23)CC1 [Compound 587] | > 16

same assay, conditions: Escherichia coli, ATCC25922, read-out: E. coli ATCC25922 MIC

Row | Structure (SMILES) | MIC [µg/mL]
52 | NCCCNCc1ccc(-c2cn3c(nc2=O)[nH]c2ccccc23)cc1 [Compound 601, 3-{4-[(3-Amino-propylamino)-methyl]-phenyl}-10H-benzo[4,5]imidazo[1,2-a]pyrimidin-2-one hydrochloride salt] | > 16
